According to patent US20080095741A1, “R-(+)-alpha-liponic acid for the prevention of diabetes” (MEDA Pharma GmbH & Co. KG, priority 2004, published 2008):
Read-outs that look alike come from different tables or passages of the source.

Tests used:
[1] = system: isolated pancreatic cells; settings: pre-incubation; radical-generating system or activated macrophages; Burkart et al., 1993; cited from earlier work
[2] = system: NOD mouse; settings: Faust et al., 1994, cited from earlier work
[3] = system: biobreed rat; assay: Preventive therapy in the biobreed rat model of diabetes (occurrence and progression); type: in vivo
Excerpt: The experiments for the primary and secondary prevention of diabetes with α-lipoic acid or its derivatives were investigated using a suitable model system. The biobreed rat is a model of diabetes in which a primary loss of p cells also occurs on account of autoimmune processes. […] A secondary stress of the p cells occurs with the simultaneous development of hyperglycemia on account of the increasing glucose toxicity. Thus, pathogenic processes are reflected in this model that stand in the foreground of the progression of the disease and contribute to the progression in all forms of diabetes.
A preventive therapy with racemic α-lipoic acid as well as the two enantiomers took place in the biobreed rat.
This allows the conclusion that for the primary and secondary prevention of diabetes only the R-configured, dextrorotary enantiomer is suitable, as well as derivatives derived from it with intact dithiolane structure. This can be used just as suitably for the prevention of the secondary loss of function of β cells after transplantation.

[4] = system: β cells; settings: Kaneto et al., 1999; cited from earlier work
[5] = system: Biobreed rats; assay: Biobreed rat, development and progression of diabetes determined by weight loss as surrogate; type: in vivo; settings: chronic ip, tromethamine salt
Protocol: Biobreed rats (male and female, 130-180 g) 5-19 weeks old were chronically treated (ip) with different doses of R-(+)-α-lipoic acid as tromethamine salt. The development and progression of diabetes was determined by weight loss as surrogate. […] Biobreed rats (male and female, 130-180 g) 5-19 weeks old were each chronically treated (ip) with 36.6 mg of different lipoic acid derivatives (as tromethamine salt). The development and progression of diabetes was determined by daily weight measuring as surrogate.

[6] = system: Biobreed rats; assay: Biobreed rat, development and progression of diabetes determined by daily measuring of the blood sugar as surrogate; type: in vivo; settings: chronic ip, tromethamine salt, blood from the caudal vein
Protocol: Biobreed rats (male and female, 130-180 g) 5-19 weeks old were chronically treated (ip) with different doses of R-(+)-α-lipoic acid as tromethamine salt. The development and progression of diabetes was determined by daily measuring of the blood sugar (taken from the caudal vein) as surrogate. […] Biobreed rats (male and female, 130-180 g) 5-19 weeks old were each chronically treated with 36.6 mg of different lipoic acid derivatives (as tromethamine salt (ip)). with as tromethamine salt. The development and progression of diabetes was determined by daily measuring of the blood sugar (taken from the caudal vein) as surrogate.

[7] = system: Biobreed rats; assay: Biobreed rat, survival time and water consumption as further surrogates; type: in vivo; settings: dose-dependent
Protocol: The survival time and the water consumption were determined as further surrogates for the occurrence and deterioration of diabetes.

In the case of `O=C(O)CCCC[C@@H](S)CCS` (racemic) [racemic dihydrolipoic acid], the “protection of pancreatic cells from lysis” value [1] is listed as “partially protected from lysis”.
For `O=C(O)CCCCC1CCSS1` (racemic) [racemic mixture], the “infiltration with immunocompetent cells into pancreatic tissue (surrogate of β cell destruction)” value ([2]; chronic administration, without cytotoxin) is listed as “had no influence”, the protective action ([2]; with additional intoxication with cyclophosphamide) is listed as “protective action” and the occurrence of diabetes [3] is listed as “remained without effect”. For the same molecule, the “progression of manifest diabetes” value [3] was “remained without effect”.
For `O=C(O)CCCC[C@H]1CCSS1` (single isomer, unassigned) [S-(−)- enantiomer], the occurrence of diabetes [3] was “remained without effect” and the “progression of manifest diabetes” value [3] was “remained without effect”.
For `CC(=O)N[C@@H](CS)C(=O)O` [N-acetylcystein], the “effect on the glucose toxicity of β cells” value [4] is given as “a certain protective action”.
In the case of `O=C(O)CCCCC1CCSS1` (stereo not drawn) [R-(+)-α-lipoic acid, 1,2-dithiolane-3-pentanoic acid], the “progression of diabetes (weight loss as surrogate)” value ([5]; Example 1, different doses) is reported as “delayed progression of diabetes in a dose-dependent manner”, the “progression of diabetes (daily weight measuring as surrogate)” value ([5]; Example 2, 36.6 mg) is reported as “had an effect on the progression of diabetes” and the “progression of a rise in blood sugar” value ([6]; Example 3, different doses) is reported as “delayed progression of a rise in blood sugar in a dose-dependent manner”. For the same molecule, the “progression of diabetes (daily blood sugar as surrogate)” value ([6]; Example 4, 36.6 mg) was “had an effect on the progression of diabetes”, the occurrence of diabetes ([3]; listed as R-(+)-enantiomer) was “can be delayed” and the “progression of manifest diabetes” value ([3]; listed as R-(+)-enantiomer) was “distinctly attenuated in a dose-dependent manner”. The “increase of the consumption of water” value [7] was “positive effect” and the survival time [7] was “positive effect”.
In the case of vitamin E, the “effect on the glucose toxicity of β cells” value [4] is listed as “no effect”.
